Columns and labels:
Nephotettix cincticeps [1] = experiment: Insecticidal activity against Nephotettix cincticeps (green rice leafhopper) fourth instar larvae reared on compound pre-treated rice seedlings assessed as insect mortality at 10 ppm measured after 7 days; assay type: functional
Nilaparvata lugens [2] = experiment: Insecticidal activity against imidacloprid-sensitive Nilaparvata lugens (brown planthopper) fourth-instar larvae reared on compound pre-treated rice seedlings assessed as insect mortality at 1 ppm measured after 7 days; assay type: functional
[3] = molecular target: T1, Muscarinic acetylcholine receptor DM1 (Drosophila melanogaster) (UniProt P16395); experiment: Inhibition of [3H]NMS from mAChR in Musca domestica (house fly) nerve-cord membranes at […] incubated at 21 degC for 60 min
T1 sequence (whole entry): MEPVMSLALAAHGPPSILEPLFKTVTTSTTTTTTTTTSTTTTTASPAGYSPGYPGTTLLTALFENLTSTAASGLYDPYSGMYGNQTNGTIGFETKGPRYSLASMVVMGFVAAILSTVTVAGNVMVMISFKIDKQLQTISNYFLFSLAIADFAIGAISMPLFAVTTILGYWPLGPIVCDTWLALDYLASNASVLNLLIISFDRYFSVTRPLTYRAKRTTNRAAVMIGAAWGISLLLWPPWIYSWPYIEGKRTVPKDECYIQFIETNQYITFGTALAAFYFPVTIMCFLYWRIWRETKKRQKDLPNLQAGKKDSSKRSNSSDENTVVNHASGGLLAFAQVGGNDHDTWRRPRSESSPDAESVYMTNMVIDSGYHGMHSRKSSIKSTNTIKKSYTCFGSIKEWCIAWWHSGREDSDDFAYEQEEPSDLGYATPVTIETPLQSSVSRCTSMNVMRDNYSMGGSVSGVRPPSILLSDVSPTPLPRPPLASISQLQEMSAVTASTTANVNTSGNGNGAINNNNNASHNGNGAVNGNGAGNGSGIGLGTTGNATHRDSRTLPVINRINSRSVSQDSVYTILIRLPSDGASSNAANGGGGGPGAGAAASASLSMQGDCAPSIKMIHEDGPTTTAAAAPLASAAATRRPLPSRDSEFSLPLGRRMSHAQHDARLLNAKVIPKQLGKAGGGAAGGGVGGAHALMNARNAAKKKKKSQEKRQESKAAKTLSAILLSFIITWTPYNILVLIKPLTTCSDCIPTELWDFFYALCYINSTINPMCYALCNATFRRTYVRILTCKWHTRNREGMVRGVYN

Aphis craccivora = experiment: Insecticidal activity against Aphis craccivora (cowpea aphid) apterous adults reared on broad bean seedlings followed by compound spraying at 200 ppm assessed as insect mortality measured after 4 days; assay type: functional; settings: 96 h
Nilaparvata lugens [4] = experiment: Insecticidal activity against imidacloprid-resistant Nilaparvata lugens (brown plant hopper) fourth-instar larvae reared on compound pre-treated rice seedlings assessed as insect mortality at 1 ppm measured after 7 days; assay type: functional
Nilaparvata lugens [5] = experiment: Insecticidal activity against imidacloprid-resistant Nilaparvata lugens (brown planthopper) fourth-instar larvae reared on compound pre-treated rice seedlings assessed as insect mortality at 10 ppm measured after 7 days; assay type: functional
Nilaparvata lugens [6] = experiment: Insecticidal activity against imidacloprid-resistant Nilaparvata lugens (brown planthopper) fourth-instar larvae reared on compound pre-treated rice seedlings assessed as insect mortality at 100 ppm measured after 7 days; assay type: functional
Nilaparvata lugens [7] = experiment: Insecticidal activity against imidacloprid-sensitive Nilaparvata lugens (brown planthopper) fourth-instar larvae reared on compound pre-treated rice seedlings assessed as insect mortality at 100 ppm measured after 7 days; assay type: functional
[8] = molecular target: T2, Nicotinic acetylcholine receptor alpha 5 subunit (Musca domestica) (UniProt A9XFY4); experiment: Inhibition of [3H]EPI from nicotinic acetylcholine receptor in Musca domestica (house fly) nerve-cord membranes at […] incubated at 21 degC for 60 min
T2 sequence (whole entry): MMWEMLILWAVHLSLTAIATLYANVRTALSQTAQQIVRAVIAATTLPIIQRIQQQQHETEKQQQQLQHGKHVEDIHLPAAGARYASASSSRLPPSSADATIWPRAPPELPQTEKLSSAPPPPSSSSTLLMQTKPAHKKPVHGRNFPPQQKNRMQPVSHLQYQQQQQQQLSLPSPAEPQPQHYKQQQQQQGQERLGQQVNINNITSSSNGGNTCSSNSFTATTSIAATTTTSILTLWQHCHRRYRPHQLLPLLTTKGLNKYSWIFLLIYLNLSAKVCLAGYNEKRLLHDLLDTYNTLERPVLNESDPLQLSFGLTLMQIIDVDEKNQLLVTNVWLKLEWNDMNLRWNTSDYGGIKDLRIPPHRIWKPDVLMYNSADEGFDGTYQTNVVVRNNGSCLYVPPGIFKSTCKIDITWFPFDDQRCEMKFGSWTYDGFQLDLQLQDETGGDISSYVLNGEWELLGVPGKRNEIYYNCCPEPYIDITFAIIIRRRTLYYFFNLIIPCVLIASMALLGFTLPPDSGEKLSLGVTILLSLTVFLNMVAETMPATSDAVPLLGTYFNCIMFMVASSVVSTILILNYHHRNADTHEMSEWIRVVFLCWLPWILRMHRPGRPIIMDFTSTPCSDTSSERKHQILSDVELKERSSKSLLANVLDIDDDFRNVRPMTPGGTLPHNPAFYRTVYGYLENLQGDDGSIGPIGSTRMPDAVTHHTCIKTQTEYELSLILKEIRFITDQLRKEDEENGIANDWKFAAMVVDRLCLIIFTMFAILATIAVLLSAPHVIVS

Nilaparvata lugens [9] = experiment: Insecticidal activity against imidacloprid-sensitive Nilaparvata lugens (brown planthopper) fourth-instar larvae reared on compound pre-treated rice seedlings assessed as insect mortality at 10 ppm measured after 7 days; assay type: functional
Nilaparvata lugens [10] = experiment: Insecticidal activity against imidacloprid-sensitive Nilaparvata lugens (brown planthopper) fourth-instar larvae reared on compound pre-treated rice seedlings assessed as insect mortality at 200 ppm measured after 7 days; assay type: functional
Nephotettix cincticeps [11] = experiment: Insecticidal activity against Nephotettix cincticeps (green rice leafhopper) fourth instar larvae reared on compound pre-treated rice seedlings assessed as insect mortality at 100 ppm measured after 7 days; assay type: functional
Nilaparvata lugens [12] = experiment: Insecticidal activity against imidacloprid-resistant Nilaparvata lugens (brown planthopper) fourth-instar larvae reared on compound pre-treated rice seedlings assessed as insect mortality at 0.1 ppm measured after 7 days; assay type: functional
Nilaparvata lugens [13] = experiment: Insecticidal activity against imidacloprid-sensitive Nilaparvata lugens (brown planthopper) fourth-instar larvae reared on compound pre-treated rice seedlings assessed as insect mortality at 0.1 ppm measured after 7 days; assay type: functional

SMILES	mortality at 10 ppm (Nephotettix cincticeps [1]) [%]	mortality at 200 ppm (Aphis craccivora) [%]	mortality at 100 ppm (Nilaparvata lugens [7]) [%]	mortality at 10 ppm (Nilaparvata lugens [9]) [%]	mortality at 200 ppm (Nilaparvata lugens [10]) [%]	mortality at 100 ppm (Nephotettix cincticeps [11]) [%]	also measured
Cc1nsc(-c2cccnc2)n1	30	100	100	80	100	80	mortality at 1 ppm (Nilaparvata lugens [2]): 60%; inhibition [3]: 12%; mortality at 1 ppm (Nilaparvata lugens [4]): 50%; mortality at 10 ppm (Nilaparvata lugens [5]): 90%; mortality at 100 ppm (Nilaparvata lugens [6]): 100%; inhibition [8]: 4%
C=CC[n+]1cccc(-c2nc(C)ns2)c1	–	10	–	–	40	–	–
Cc1nsc(C2=CCCN(CC(C)C)C2)n1	0	50	100	70	100	10	–
C[n+]1cccc(-c2ncno2)c1	–	20	–	–	60	–	–
C#CCN1CCC=C(c2ncns2)C1	20	30	100	30	100	60	–
Cc1noc(C2=CCCN(C)C2)n1	50	0	90	70	100	90	–
C[n+]1cccc(-c2ncns2)c1	–	30	–	–	80	–	–
Cc1noc(-c2ccc[n+](C)c2)n1	–	10	–	–	10	–	–
CC[n+]1cccc(-c2nc(C)ns2)c1	–	20	–	–	20	–	–
c1cncc(-c2ncno2)c1	–	20	–	–	50	–	–
Cc1noc(-c2ccccn2)n1	–	0	–	–	10	–	–
Cc1nsc(C2=CCCN(Cc3ccccc3)C2)n1	0	10	100	10	100	30	–
Cc1nsc(-c2ccccn2)n1	–	30	–	–	40	–	–
CCCCN1CCC=C(c2nc(C)ns2)C1	10	30	100	30	100	20	–
Cc1nsc(-c2ccc[n+](Cc3ccccc3)c2)n1	–	10	–	–	20	–	–
c1cncc(-c2ncns2)c1	40	100	100	60	100	70	–
CCN1CCC=C(c2nc(C)ns2)C1	10	40	100	40	100	50	–

SMILES	mortality at 10 ppm (Nephotettix cincticeps [1]) [%]	mortality at 200 ppm (Aphis craccivora) [%]	mortality at 100 ppm (Nilaparvata lugens [7]) [%]	mortality at 10 ppm (Nilaparvata lugens [9]) [%]	mortality at 200 ppm (Nilaparvata lugens [10]) [%]	mortality at 100 ppm (Nephotettix cincticeps [11]) [%]	also measured
Cc1nsc(C2=CCCN(CC#N)C2)n1	0	50	100	10	100	50	–
CCCCCCCCCC[n+]1cccc(-c2nc(C)ns2)c1	–	60	–	–	0	–	–
CCCCCCCCCCN1CCC=C(c2nc(C)ns2)C1	–	60	–	–	30	–	–
Cc1nsc(-c2ccc[n+](CC#N)c2)n1	10	70	80	50	90	40	–
Cc1noc(-c2cccnc2)n1	–	30	60	–	90	100	–
CCCC[n+]1cccc(-c2nc(C)ns2)c1	–	10	–	–	50	–	–
C=CCN1CCC=C(c2ncns2)C1	10	40	100	60	100	60	–
Cc1noc(-c2ccncc2)n1	–	0	–	–	10	–	–
Cc1nsc(C2CCCN(C)C2)n1 (stereo not drawn)	–	0	–	–	30	–	–
O=[N+]([O-])/N=C1\NCCN1Cc1ccc(Cl)nc1 [IMIDACLOPRID]	–	–	–	–	–	–	mortality at 1 ppm (Nilaparvata lugens [2]): 100%; mortality at 1 ppm (Nilaparvata lugens [4]): 80%; mortality at 10 ppm (Nilaparvata lugens [5]): 100%; mortality at 0.1 ppm (Nilaparvata lugens [12]): 50%; mortality at 0.1 ppm (Nilaparvata lugens [13]): 90%
CCC(C)[n+]1cccc(-c2nc(C)ns2)c1 (stereo not drawn)	10	20	90	90	100	50	–
C#CC[n+]1cccc(-c2nc(C)ns2)c1	10	70	80	40	90	50	–
Cc1nsc(-c2ccc[n+](C)c2)n1	–	60	–	–	40	–	–
CN1CCC=C(c2ncns2)C1	–	30	–	–	60	–	–
Cc1nsc(C2=CCCN(C)C2)n1	0	40	100	80	100	30	mortality at 1 ppm (Nilaparvata lugens [2]): 30%; inhibition [3]: 62%; mortality at 1 ppm (Nilaparvata lugens [4]): 50%; mortality at 10 ppm (Nilaparvata lugens [5]): 90%; mortality at 100 ppm (Nilaparvata lugens [6]): 100%; inhibition [8]: 6%
Cc1nsc(-c2ccncc2)n1	20	40	100	20	100	40	–

— ChEMBL document CHEMBL3046111, “Synthesis and insecticidal activity of 1,2,4-oxadiazole and 1,2,4-thiadiazole derivatives” (2011)
